This passage reports EC50 results from US9650339B2, “Inhibitors of histone demethylases” (Gilead Sciences, Inc., priority 2013, dated 2017).

Holding throughout (type): cell-based
One experiment deals with ARPE19. As to the kind of experiment: Cell proliferation assay ARPE19. The note with it: Homo sapiens, ARPE-19; ARPE19, Retinal pigmented epithelium; method of Example 5. On the procedure: (§1) MCF7 cells were seeded in multi well plates at a density optimized to give approximately 90% confluent cells at the time of harvest. Cells were incubated for 24 hours before addition of compound. Compounds were diluted in complete medium and added to the plates in duplicates. The final concentration of DMSO was maximum 0.5%. Complete medium used was DMEM with GlutaMAX containing 10% FBS and pen/strep.
(§2) 120 hours after addition of compounds, the plates were harvested and analyzed by ATPlite 1 Step (Perkin Elmer, cat no 6016739) according to the manufactures recommendation.
(§3) The assays were performed by the method of Example 5 by seeding the relevant cell line at a density optimized to give approximately 90% confluent cells at the time of harvest.

The test system of another experiment is BT474. As to the kind of experiment: Cell proliferation assay BT474. To be noted: Homo sapiens, BT-474; BT474, Mammary ductal carcinoma; method of Example 5. The protocol:
as §1, §2, §3

A further experiment has as its system EJM. The experiment can be described thus: Cell proliferation assay EJM. The note with it: Homo sapiens, Myeloma, method of Example 5. On the procedure:
as §1, §2, §3

The next experiment relates to HEPG2. The experiment can be described thus: Cell proliferation assay HEPG2. To be noted: Homo sapiens; HEPG2, Hepatocellular carcinoma; method of Example 5. On the procedure:
as §1, §2, §3

Another experiment concerns KARPAS620. As to the kind of experiment: Cell proliferation assay KARPAS620. The note with it: Homo sapiens, Karpas-620; KARPAS620, Plasma cell leukemia; method of Example 5. The protocol:
as §1, §2, §3

The next experiment relates to L363. As to the kind of experiment: Cell proliferation assay L363. To be noted: Homo sapiens, L-363; L363, Plasma cell leukemia; method of Example 5. On the procedure:
as §1, §2, §3

For the next experiment, the system named is MIA PACA2. The experiment can be described thus: Cell proliferation assay MIA PACA2. To be noted: Homo sapiens, MIA PaCa-2; MIA PACA2, Pancreas epithelial carcinoma; method of Example 5. On the procedure: as §1, §2, §3
Another experiment relates to NCIH929. The experiment can be described thus: Cell proliferation assay NCIH929. The note with it: Homo sapiens, NCI-H929; NCIH929, Myeloma; method of Example 5. The protocol:
as §1, §2, §3

In a further experiment the test system is RAJI. As to the kind of experiment: Cell proliferation assay RAJI. To be noted: Homo sapiens, Burkitt's lymphoma, method of Example 5. The protocol:
as §1, §2, §3

A further experiment has as its system RPMI8226. As to the kind of experiment: Cell proliferation assay RPMI8226. The note with it: Homo sapiens, RPMI-8226; RPMI8226, Myeloma; method of Example 5. On the procedure: as §1, §2, §3
The subject of a further experiment is U266. The experiment can be described thus: Cell proliferation assay U266. The note with it: Homo sapiens, U-266; U266, Myeloma; method of Example 5. The protocol: as §1, §2, §3
For another experiment, the system named is UH01. The experiment can be described thus: Cell proliferation assay UH01. To be noted: Homo sapiens; UH01, Hodgkin's lymphoma; method of Example 5. The protocol: as §1, §2, §3
Another experiment concerns MM1R. The experiment can be described thus: Cell proliferation assay MM1R. To be noted: Homo sapiens, MM.1R, Myeloma, method of Example 5. On the procedure:
as §1, §2, §3

For a further experiment, the system named is MOLP8. As to the kind of experiment: Cell proliferation assay MOLP8. To be noted: Homo sapiens, MOLP-8; MOLP8, Myeloma; method of Example 5. The protocol: as §1, §2, §3
Another experiment concerns MDA MB 231. As to the kind of experiment: Cell proliferation assay MDA MB 231. The note with it: Homo sapiens; MDA MB 231, Breast carcinoma; method of Example 5. On the procedure: as §1, §2, §3
In another experiment the test system is MOLP2. As to the kind of experiment: Cell proliferation assay MOLP2. The note with it: Homo sapiens, MOLP-2; MOLP2, Myeloma; method of Example 5. The protocol:
as §1, §2, §3

A further experiment deals with NALM6. The experiment can be described thus: Cell proliferation assay NALM6. The note with it: Homo sapiens, NALM-6; NALM6, Lymphoblastic leukemia; method of Example 5. The protocol: as §1, §2, §3
The next experiment has as its system OPM2. The experiment can be described thus: Cell proliferation assay OPM2. The note with it: Homo sapiens, OPM-2; OPM2, Myeloma; method of Example 5. On the procedure: as §1, §2, §3
The subject of a further experiment is U2OS. The experiment can be described thus: Cell proliferation assay U2OS. To be noted: Homo sapiens, Osteosarcoma, method of Example 5. On the procedure:
as §1, §2, §3

The next experiment relates to AMO1. As to the kind of experiment: Cell proliferation assay AMO1. The note with it: Homo sapiens; AMO1, Plasmacytoma; method of Example 5. The protocol: as §1, §2, §3
The subject of the next experiment is HCC1954. As to the kind of experiment: Cell proliferation assay HCC1954. To be noted: Homo sapiens; HCC1954, Breast dutal carcinoma; method of Example 5. On the procedure: as §1, §2, §3
For another experiment, the system named is Jurkat Clone E6-1. As to the kind of experiment: Cell proliferation assay Jurkat Clone E6-1. To be noted: Homo sapiens; Jurkat Clone E6-1, Acute T cell lymphoma; method of Example 5. The protocol:
as §1, §2, §3

Another experiment concerns K562. As to the kind of experiment: Cell proliferation assay K562. The note with it: Homo sapiens; K562, Chronic myelogenous leukemia; method of Example 5. The protocol:
as §1, §2, §3

The next experiment has as its system L1236. As to the kind of experiment: Cell proliferation assay L1236. The note with it: Homo sapiens, L-1236; L1236, Hodgkin's lymphoma; method of Example 5. The protocol:
as §1, §2, §3

The test system of another experiment is MM1S. As to the kind of experiment: Cell proliferation assay MM1S. The note with it: Homo sapiens, MM1.S, Myeloma, method of Example 5. The protocol: as §1, §2, §3
In a further experiment the test system is SK-MEL-28. As to the kind of experiment: Cell proliferation assay SK-MEL-28. The note with it: Homo sapiens; SK-MEL-28, Melanoma; method of Example 5. On the procedure:
as §1, §2, §3

The next experiment has as its system SU DHL6. As to the kind of experiment: Cell proliferation assay SU DHL6. The note with it: Homo sapiens, SU-DHL-6; SU DHL6, B cell lymphoma; method of Example 5. On the procedure: as §1, §2, §3

Turning to `CCN(CC)CCCCNCc1cc(/C=N/CCO)ccn1` [Compound 61, 2-[{[2-({[4-(diethylamino)-butyl]amino}-methyl)pyridin-4-yl]methylidene}-amino]ethan-1-ol], the half-maximal effective concentration (EC50) is greater than 2500 nM in the experiment on ARPE19; less than 250 nM in the experiment on BT474; greater than 2500 nM in the experiment on EJM; greater than 2500 nM in the experiment on HEPG2; less than 250 nM in the experiment on KARPAS620; greater than 2500 nM in the experiment with L363. Moreover, the EC50 with MIA PACA2, in the experiment with NCIH929, with RAJI, in the experiment with RPMI8226, in the experiment on U266 and with UH01 was greater than 2500 nM throughout.
In the case of `CCN(CCN(C)C)C(=O)CNCc1cc(C2OCC(Cc3ccccc3)CN2C(=O)C(F)(F)F)ccn1` (centres unmarked) [Compound 90, 2-[({4-[5-benzyl-3-(trifluoroacetyl)-1,3-oxazinan-2-yl]pyridin-2-yl}methyl)amino]-N-[2-(dimethylamino)-ethyl]-N-ethylacetamide], the EC50 with HEPG2 was greater than 2500 nM; in the experiment on KARPAS620, less than 250 nM; in the experiment on MM1R it was less than 250 nM; in the experiment with MOLP8, less than 250 nM; in the experiment on RAJI, greater than 2500 nM; in the experiment with RPMI8226 it was 250 to 2500 nM.
Turning to `CCN(CC)CCCCNCc1cc(C=O)ccn1` [Compound 107, 2-({[4-(diethylamino)-butyl]amino}-methyl)pyridine-4-carbaldehyde], the EC50 with ARPE19 is greater than 2500 nM; in the experiment with BT474, less than 250 nM; in the experiment with MDA MB 231, greater than 2500 nM; with MIA PACA2, greater than 2500 nM; in the experiment with MOLP2 it was greater than 2500 nM; in the experiment on NALM6, less than 250 nM. Besides, the EC50 is 250 to 2500 nM with OPM2, greater than 2500 nM with RPMI8226 and greater than 2500 nM in the experiment on U2OS.
Regarding `CCN(CCN(C)C)C(=O)CNCc1cc(CNC(=O)C(F)(F)F)ccn1` [Compound 25, N-[(2-{[({[2-(dimethylamino)ethyl]-(ethyl)carbamoyl}-methyl)amino]methyl}-pyrtdin-4-yl)methyl]-2,2,2-trifluoroacetamide], the EC50 is less than 250 nM with AMO1; greater than 2500 nM with ARPE19; greater than 2500 nM in the experiment on EJM; greater than 2500 nM in the experiment with HCC1954; greater than 2500 nM in the experiment with HEPG2; greater than 2500 nM in the experiment on Jurkat Clone E6-1. Moreover, the EC50 in the experiment with K562 was 250 to 2500 nM; in the experiment on L1236 it was greater than 2500 nM; in the experiment on L363, greater than 2500 nM; in the experiment on MDA MB 231 it was greater than 2500 nM; in the experiment with MM1S, less than 250 nM; in the experiment with MOLP2, 250 to 2500 nM. The EC50 is 250 to 2500 nM in the experiment with NCIH929; 250 to 2500 nM with OPM2; greater than 2500 nM with RAJI; greater than 2500 nM in the experiment on SK-MEL-28; less than 250 nM in the experiment with SU DHL6.
In the case of `C(=N/C1CC1)/c1ccnc(CNCCCN2CCCC2)c1` [Compound 42, N-{[2-({[3-(pyrrolidin-1-yl)propyl]amino}-methyl)pyridin-4-yl]methylidene}-cyclopropanamine], the EC50 in the experiment with ARPE19 is greater than 2500 nM; with BT474 it was 250 to 2500 nM; in the experiment on HEPG2, greater than 2500 nM; in the experiment on KARPAS620 it was greater than 2500 nM; with L1236 it was greater than 2500 nM; in the experiment on MDA MB 231, greater than 2500 nM. The EC50 was greater than 2500 nM in the experiment with MIA PACA2; less than 250 nM with NALM6; greater than 2500 nM in the experiment on OPM2; greater than 2500 nM in the experiment with RAJI; greater than 2500 nM in the experiment on RPMI8226; greater than 2500 nM with U2OS.
